Assay results reported in patent US20150366911A1, “METHODS FOR REJUVENATING RED BLOOD CELLS” (Biomet Biologics, LLC, priority 2013, published 2015).

Key:
[1] = Total Plasma Volume = 2.28 Liters; refer to 2000 Report by Dr. Lobe; cited from earlier work
[2] = Plasma concentration in vivo after transfusion of one unit of 2,3-DPG enhanced cells; conditions: Total Plasma Volume = 2.28 Liters
Description: A Y-type tube set is assembled is assembled as shown in FIG. 2 and connected to a unit of RBCs. The tube set includes a 0.2 μm filter. RBC enhancement composition (Rejuvesol® Solution) is transferred to the RBCs via a vented spike to form a treated blood composition. The treated blood composition is mixed and incubated, forming an incubated blood composition. The treated blood composition is centrifuged to form a concentration of RBC and a supernatant. The supernatant is transferred to an empty waste bag, and the concentration of RBCs was resuspended in 100 mL additive solution that was transferred from a second transfer bag.
A Y-type tube set is assembled as shown in FIG. 2 and connected to a unit of 250 mL RBCs. 100 mL additive solution, comprising saline, was transferred to the RBCs. The tube set includes a 0.2 μm filter. 50 mL RBC enhancement composition (Rejuvesol® Solution) was transferred to the RBCs via a vented spike to form a treated blood composition. The treated blood composition was mixed and incubated, forming an incubated blood composition. The incubated blood composition was then diluted with 200 mL wash solution from a first transfer bag containing 200 mL wash solution, forming a diluted blood composition. The diluted blood composition was centrifuged to form a concentration of RBCs and a supernatant. The supernatant was transferred to the now empty first transfer bag, and the concentration of RBCs was resuspended in 100 mL additive solution, which was transferred from a second transfer bag.
Blood processed according to Examples 1 and 2 are analyzed for concentrations of rejuvenation materials in the final processed RBC suspensions, with the following results.

| SMILES | Plasma Concentration in vivo after transfusion of one unit, Without Further Processing [1] | Plasma Concentration in vivo after transfusion of one unit, Concept 2, assume 85% Removal [2] | Plasma Concentration in vivo after transfusion of one unit, Concept 1, assumes 75% Removal [2] |
| --- | --- | --- | --- |
| Nc1ncnc2nc[nH]c12 [Adenine] | 110 µM | 16 µM | 27 µM |
| O=c1[nH]cnc2nc[nH]c12 [Hypoxanthine] | 2190 µM | 330 µM | 550 µM |
| OC[C@H]1O[C@@H](n2cnc3c(O)ncnc32)[C@H](O)[C@@H]1O [Inosine] | 2190 µM | 330 µM | 550 µM |
| CC(O)C(=O)O (stereo not drawn) [Lactate] | 2190 µM | 330 µM | 550 µM |
| CC(=O)C(=O)O [Pyruvate] | 2190 µM | 330 µM | 550 µM |
| O=c1[nH]c(=O)c2[nH]c(=O)[nH]c2[nH]1 [Uric Acid] | 2190 µM | 330 µM | 550 µM |
